Test: Human HepG2 cell viability assay in 384 well format
Type: toxicity, cell-based
Design: dose 125 nL, time 70.5 hour; cytotoxicity at 70.5 h: concentration not given beside the values
Details: HepG2 cells, read-out: Inhibition

Structure (SMILES)	cytotoxicity at 70.5 h
CC(=O)N(C)C(c1cccnc1)c1ccc(F)c(F)c1 (centres undefined)	23.1%
Cc1ccnc(NC(=O)c2cc(C)oc2C)c1	4.63%
Cc1ccnc(NC(=O)c2ccc(Cl)o2)c1	-9.97%
CCN(CC(=O)Nc1cc(C(C)(C)C)no1)Cc1ccc(Cl)s1	-3.4%
O=S(=O)(CCCn1cncn1)Cc1ccc(F)cc1Cl	-8.31%
Cc1cnc(C(=O)NCC2Cc3ccccc3O2)cn1 (centres undefined)	1.1%
CS(=O)(=O)N1CCC(C(=O)Nc2nnc(C(F)(F)F)[nH]2)CC1	-6.85%
CC(C(=O)N1CCOCC1)S(=O)(=O)Cc1noc(C(C)(C)C)n1 (centres undefined)	7.07%
CC(NC(=O)c1ccoc1)C(=O)N(C)Cc1cccc(C(F)(F)F)c1 (centres undefined)	9.42%
CC(c1ccco1)N(C(=O)COc1ccc(C#N)cc1)C1CC1 (centres undefined)	-6.31%
CC(c1ccco1)N(C(=O)c1cccc(C#N)c1)C1CC1 (centres undefined)	-5.03%
CCOc1nnc(CN2CCC(c3nc4ccccc4[nH]3)CC2)s1	1.06%
CC(c1nc(-c2ccccc2)no1)N1CC(n2cccn2)C1 (centres undefined)	-4.14%
CN(C)S(=O)(=O)c1ccc(F)c(NC(=O)COCC2CC2)c1	-10.8%
CC(C)(C)SCC(=O)Nc1cc(-n2nnnc2C2CC2)ccc1F	10.5%
CCOCC(=O)Nc1cc(-n2nnnc2C2CC2)ccc1F	0.6%
Cc1cnn(CC(=O)Nc2cc(-n3nnnc3C3CC3)ccc2F)c1	-7.79%
CCN(CC)S(=O)(=O)NC(=O)c1cc(C)n(-c2ccccc2)n1	10.6%
CCCS(=O)(=O)NC(=O)c1cc(C)n(-c2ccccc2)n1	7.41%
CCOc1ccccc1CCNC(=O)NCC(O)c1cccs1 (centres undefined)	-4.36%
CCC(CC)c1cc(C(=O)N2CCN(CC(N)=O)CC2)on1	-6.02%
CNS(=O)(=O)c1cc(C(=O)N2CCCCCC2CC(C)C)co1 (centres undefined)	-3.95%
CN1CCOC(C(=O)Nc2nnc(Cc3ccc(F)cc3)[nH]2)C1 (centres undefined)	-7.94%
CCOC(C)C(=O)Nc1cc(S(=O)(=O)NC2CC2)ccc1F (centres undefined)	6.35%

Structure (SMILES)	cytotoxicity at 70.5 h
Cc1nc(CN(C)c2nccc(N(C)C)n2)cs1	-0.0733%
Cc1ccn(Cc2nc(CC(C)C)no2)c(=O)c1	-6.72%
Cc1nc(CSCCC(=O)Nc2cccc(N3CCNC3=O)c2)cs1	-0.129%
O=C(NCc1ccnc(OCC(F)(F)F)c1)NCC1CCOC1 (centres undefined)	-15.8%
Cc1cc(-n2c(C)cn(CN(C)Cc3ccccc3)c2=O)no1	-5.85%
COc1ccc(CN(C)Cn2cc(C)n(-c3cc(C)on3)c2=O)cc1	-12.5%
Cc1cc(CN(CCO)Cc2cc(Br)ccc2F)no1	-17.4%
N#Cc1c(CN2CCCC2Cn2cncn2)cn2ccccc12 (centres undefined)	-12.3%
COCC(=O)NC(c1ccccc1)c1ccc2c(c1)CCCO2 (centres undefined)	-16.4%
O=C(Cn1cnnn1)NC(c1ccccc1)c1ccc2c(c1)CCCO2 (centres undefined)	24.4%
Cc1ccc(C2CSCCN2C(=O)c2ccncc2)cc1 (centres undefined)	0.0663%
CCOCCOC(C)C(=O)Nc1ccc2ccn(CC(=O)NC)c2c1 (centres undefined)	-13.2%
O=C(Nc1cccnc1)NC1(c2cccc(F)c2)CC1	-14.7%
CCc1ccccc1CNC(=O)NCc1cnn(C)c1	-11.8%
O=C(NCCO)NC(c1ccccc1)c1ccc2c(c1)CCCO2 (centres undefined)	-12.9%
CC1CS(=O)(=O)CCN1CCCc1ccc(Cl)cc1 (centres undefined)	-6.15%
O=C(CCCc1ccccn1)Nc1cccc(N2CCCNC2=O)c1	-0.166%
COc1ccccc1C1(CNC(=O)NCc2noc(C)n2)CC1	26.4%
CS(=O)(=O)c1ccc(NC(=O)NC2(c3cccc(F)c3)CC2)cc1	-7.54%
Cc1ccc(C2CN(CCS(C)(=O)=O)CCO2)c(C)c1 (centres undefined)	-12.5%
O=S(=O)(c1cncc(F)c1)N1CCC2(CCOC2)C1 (centres undefined)	-14.3%
O=S(=O)(c1cncc(F)c1)N1CCC2(CCCCC2)C1	-13%
Cc1nc(CNC(=O)NCC2(C)CCCc3ccccc32)no1 (centres undefined)	29.3%
CC(=O)Nc1ccc(SCC(O)COCc2ccc3c(c2)OCO3)cc1 (centres undefined)	-4.91%

Structure (SMILES)	cytotoxicity at 70.5 h
CC1CS(=O)(=O)CCN1CCCc1ccc(C(F)(F)F)cc1 (centres undefined)	-10.6%
Clc1ccc(C(CNCc2cccnc2)n2cccn2)cc1 (centres undefined)	24.3%
CCn1cc(CNCC(c2ccc(Cl)cc2)n2cccn2)cn1 (centres undefined)	-14.8%
Cc1cc(-n2c(C)cn(CN(C)CC3CC3)c2=O)no1	-1.13%
COCCCN(Cc1ccncc1)c1ncc(C#N)cc1Cl	-0.375%
Cc1ccc(C2CSCCN2C(=O)c2ccccn2)cc1 (centres undefined)	-13.2%
CCc1ccccc1CNC(=O)CCc1cnn(C)c1	-8.72%
CC(C)N1C(=O)CN(CCCO)CC1(C)C	-9.87%
COCCC1(C(=O)NCCc2nncn2C2CC2)CCC1	-13.5%
CC(=O)N1CCC(Oc2ccc(C#N)cc2)CC1	9.28%
Cc1noc(CCNC(=O)c2ccc(Br)c(S(=O)(=O)N(C)C)c2)n1	-4.79%
Cc1occc1C(=O)NCC(=O)N1CCC(COc2ccccc2)CC1	-2.93%
CS(=O)(=O)N1CCC(C(=O)N2CCOc3ccccc32)CC1	-5.71%
CC1CCN(C(=O)C2CCN(S(C)(=O)=O)CC2)c2ccccc21 (centres undefined)	-7.57%
Cc1nn(C)c(Cl)c1S(=O)(=O)N(CC(N)=O)CC(C)C	-16.6%
Cc1nn(C)c(C)c1S(=O)(=O)N(CC(N)=O)CC(C)C	-8.24%
NC(=O)C(Cc1ccccc1)NS(=O)(=O)Cc1ccccc1F (centres undefined)	-15%
Cc1ccc(NC(=O)N(C)C)c(C(=O)OCC(=O)NC2CCCC2)c1	-0.892%
Cc1ccc(NC(=O)N(C)C)c(C(=O)OCC(=O)NC(C)C(C)C)c1 (centres undefined)	26.9%
Cc1nc(-c2ccc(S(=O)(=O)N3CCSCC3)cc2)co1	-5.93%
CN(Cc1c(F)cccc1Cl)C(=O)c1cnn(CCN2CCOCC2)c1	-12.6%
COCc1nc(C(=O)NS(=O)(=O)c2ccc(F)c(F)c2)cs1	-6.1%
Cc1ccc(CN2CCOCC2)cc1NCc1ccsc1	-13.9%
Cc1nc(-c2ccc(S(=O)(=O)N3CCC=C(F)C3)cc2)co1	-9.72%

Structure (SMILES)	cytotoxicity at 70.5 h
COC(=O)CN(C(=O)c1ccc(Cl)cn1)c1cccc(F)c1	-0.717%
CC(C)(C)OC(=O)NCCC(=O)N(CCC#N)Cc1ccco1	-0.853%
COC(=O)CN(C(=O)c1ccc(Cl)o1)c1cccc(F)c1	-11.3%
CCc1noc(CN(C)Cc2cc(Br)ccc2OC)n1	-5.46%
COCCC(=O)N(CCC#N)c1ccc2c(c1)OCCO2	-0.557%
NC(=O)c1cnn2c1NCC(CNCC1(c3ccccc3)CCC1)C2 (centres undefined)	10.4%
N#Cc1ccc(CN2CCOCC2)cc1	2.27%
CC(C)C(C)N(C)C(=O)COc1ccccc1C#N (centres undefined)	1.38%
CC(Oc1cc(Cl)cc(Cl)c1)C(=O)NCCC(=O)N(C)C (centres undefined)	-6.44%
CC(CNC(=O)OC(C)(C)C)N(C)C(=O)COc1ccccc1C#N (centres undefined)	-12.1%
Cc1ncc2c(n1)CN(c1ncnc3[nH]ccc13)CC2	1.91%
Cc1ccc(N(CCC#N)C(=O)CCc2cccnc2)cc1C	-5.18%
Cc1nc(CCCNC(=O)Nc2cc(F)cc(F)c2)n[nH]1	-11.9%
Cc1nc(C)c(S(=O)(=O)NC(=O)c2cccs2)s1	-4.64%
Cc1noc(C)c1CNC(=O)Nc1ccc(N2CCSCC2)cc1	-9.93%
CC(Oc1cc(Cl)cc(Cl)c1)C(=O)NCCOCC(N)=O (centres undefined)	18%
CC(c1ccco1)N(C(=O)Cn1nc2n(c1=O)CCCCC2)C1CC1 (centres undefined)	18%
Cc1ocnc1CNC(=O)Nc1ccc(N2CCOC(C)C2)cc1 (centres undefined)	-17.7%
CC(C)CC(CO)NS(=O)(=O)Cc1ccon1 (centres undefined)	-6.44%
Cc1nc(CCCNC(=O)c2cc(F)ccc2O)n[nH]1	-9.81%
CCc1ncnc(N2CCOCC2C(N)=O)c1F (centres undefined)	-5.74%
CC(c1ccncc1)N(C)C(=O)NCCOc1ccc(C#N)cc1 (centres undefined)	16.9%
Cc1cnc(C(=O)N2CCOCC2C)cn1 (centres undefined)	-16.2%
N#Cc1ccc(CN2CCC(CN3CCOCC3)C2)cc1 (centres undefined)	-5.35%

Structure (SMILES)	cytotoxicity at 70.5 h
CC(c1ccco1)N(C)C(=O)NCCOc1ccc(C#N)cc1 (centres undefined)	-8.15%
COc1c(C(=O)NC(C)CC(=O)c2cccs2)c(C)nn1C (centres undefined)	-0.066%
Cc1cnc(C(=O)N2CCOCC2c2ccccc2)cn1 (centres undefined)	-10.2%
N#CC1(NC(=O)c2c(F)ccc(OC(F)F)c2F)CCOCC1	-9.56%
CCC(C)NC(=O)Nc1cccc(OC)c1 (centres undefined)	-5.26%
Cc1csc(CCNC(=O)N2CCC(C(N)=O)CC2)n1	-16.7%
O=C(CCc1nc(-c2ccsc2)no1)NCC1CCN(C2CC2)C1 (centres undefined)	7.83%
CN(C)C(=O)Cn1cnc2c(Br)cccc2c1=O	-10.4%
Cc1nnc(CN(Cc2ccco2)Cc2cccc3c2OCO3)n1C	-6.18%
CN(CCC#N)C(=O)Cn1cnc2c(Br)cccc2c1=O	-1.58%
COc1ccc(-c2cnc(CN(CC(N)=O)C3CCCC3)o2)cc1	-11.2%
NC(=O)CN(Cc1ncc(-c2ccc(Cl)cc2)o1)C1CCCC1	-7.75%
Nc1nccnc1C(=O)NC1CCCN(Cc2c(F)cccc2F)C1 (centres undefined)	-16.3%
CCOc1ccccc1C(=O)NCc1nncn1C1CC1	3.5%
CCNC(=O)C1CCN(Cc2ccccc2OCC(F)(F)F)CC1	-4.11%
COc1ccc(C)nc1NC(=O)Cc1c(C)nn(C)c1C	-0.279%
NC(=O)NC1CCN(Cc2ccccc2OCC(F)(F)F)CC1	-4.28%
COc1ccc(C)c(NC(=O)NCc2ncnn2C)c1	3.43%
O=C(NCc1nncn1C1CC1)c1cccnc1Oc1ccccc1	-0.0708%
N#CC1(NC(=O)c2ccc(F)cc2OC(F)F)CCOCC1	-10.6%
COc1ccc(Br)c(NC(=O)NCc2ncnn2C)c1	-9.33%
COc1ncc(NCc2ccsc2)cc1C(N)=O	3.63%
COc1ncc(NCc2cccc(C#N)c2)cc1C(N)=O	-1.66%

Source: ChEMBL document CHEMBL3507680, “University of Dundee, Gates Library screen for HepG2 cell viability”
